According to patent publication US9573908B2, “Broad spectrum pro-quorum-sensing molecules as inhibitors of virulence in vibrios” (priority 2012, dated 2017):

How the values were obtained:
[1] = system: V. cholerae ΔcqsA ΔluxS double synthase mutant; format: cell-based; settings: for induction of bioluminescence / QS activation: ΔcqsA ΔluxS double synthase mutant (wild type LuxO)
[2] = system: V. cholerae luxO^D47E strain; format: cell-based, Vibrio cholerae; settings: for induction of bioluminescence / QS activation: luxO^D47E mutant
[3] = system: qrr4 expression in V. cholerae luxO^D47E strain; format: cell-based, Vibrio cholerae; settings: 50 μM compound
vpsR = test: Transcription of the σ54-dependent gene vpsR; format: cell-based, Vibrio cholerae; settings: in the presence of compound
LuxO D47E = LuxO D47E (Vibrio cholerae serotype O1, UniProt Q9KT84, D47E); test: Coupled-enzyme ATPase assay, LuxO D47E; format: biochemical; settings: for inhibition of ATP hydrolysis: FIG. 5A-C; for mode of inhibition: Lineweaver-Burk plots, parallel slopes
E. coli NtrC = target: T1, E. coli NtrC (Escherichia coli, UniProt P0AFB8, D54E); test: biochemical; settings: read-out: inhibition of ATPase activity of purified E. coli NtrC
T1 construct: His6 (N); made in house; host or cells: E. coli BL21 (DE3), strain WN2181 (pET28B-NtrC D54E)
T1 sequence (P0AFB8 1-469 D54E): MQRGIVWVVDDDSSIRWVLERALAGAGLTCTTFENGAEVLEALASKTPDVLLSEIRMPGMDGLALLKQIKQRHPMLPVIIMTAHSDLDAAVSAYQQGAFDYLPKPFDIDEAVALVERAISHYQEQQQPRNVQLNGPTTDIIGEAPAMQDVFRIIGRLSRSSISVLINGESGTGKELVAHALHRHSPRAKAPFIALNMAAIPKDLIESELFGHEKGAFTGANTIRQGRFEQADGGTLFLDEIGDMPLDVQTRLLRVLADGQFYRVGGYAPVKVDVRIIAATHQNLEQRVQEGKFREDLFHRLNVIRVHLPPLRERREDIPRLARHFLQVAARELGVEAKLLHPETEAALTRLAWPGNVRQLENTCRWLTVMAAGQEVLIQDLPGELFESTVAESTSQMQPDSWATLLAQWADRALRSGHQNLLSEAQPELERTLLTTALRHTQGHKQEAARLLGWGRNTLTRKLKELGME

[4] = system: V. parahaemolyticus luxO* mutant (LM4476); test: Colony opacity of V. parahaemolyticus; format: cell-based, Vibrio parahaemolyticus; settings: 500 μM in medium
LuxO D47E/I211F = LuxO D47E/I211F (Vibrio cholerae serotype O1, UniProt Q9KT84, D47E/I197F); test: Coupled-enzyme ATPase assay, LuxO D47E/I211F; format: biochemical; settings: 100 μM Compound 12, 2.5 mM ATP (FIG. 11)
[5] = system: V. cholerae luxO^D47E strain; format: cell-based, Vibrio cholerae; settings: 0-200 μM compound 12, Western blot
[6] = system: V. parahaemolyticus luxO* strain (LM4476); format: cell-based; settings: 200 and 500 μM compound 12, Western blot
[7] = system: V. parahaemolyticus LM4476 (luxO*) on cultured HeLa cells; test: V. parahaemolyticus cytotoxicity assay on HeLa cells (LDH release); settings: 500 μM, luxO* mutant, MOI 10

SMILES	EC50 (potency) of QS activation ([1]; dose-response curves, FIG. 2C, comparison in words)	induction of bioluminescence / QS activation [1]	induction of bioluminescence / QS activation [2]	decrease of GFP production from qrr4-gfp transcriptional fusion [3] [fold]	change in transcription of vpsR (vpsR)	inhibition of ATP hydrolysis (LuxO D47E)	mode of inhibition (LuxO D47E)	inhibition at 250 µM (E. coli NtrC) [%]	colony morphology [4]	enhancement in potency ([2]; EC50 from FIG. 3, tert-butyl carbinol side chain versus the series) [fold]	inhibition of ATPase activity of LuxO D47E/I211F (LuxO D47E/I211F)	HapR level [5]	TcpA level [5]	VopD production and secretion [6]	average cytotoxicity (HeLa cell lysis) ([7]; 2 to 3 hours post-infection) [%]	cytotoxicity (HeLa cell lysis) ([7]; 4-hour post-infection) [%]
CC(C)COC(=O)CSc1n[nH]c(=O)[nH]c1=O [Compound 11, Isobutyl 2-((3,5-dioxo-2,3,4,5-tetrahydro-1,2,4-triazin-6-yl)thio)acetate]	highest potency	activate QS	activate QS	~3	did not change significantly	inhibit ATP hydrolysis in a dose-dependent manner	uncompetitive inhibitors	~10	switch from translucent to opaque	–	–	–	–	–	–	–
CC(C)(C)COC(=O)CSc1n[nH]c(=O)[nH]c1=O [Compound 12, Neopentyl 2-((3,5-dioxo-2,3,4,5-tetrahydro-1,2,4-triazin-6-yl)thio)acetate]	–	activate QS	activate QS	–	–	inhibit ATP hydrolysis in a dose-dependent manner	uncompetitive inhibitors	~10	switch from translucent to opaque	3	not inhibited	increased	decreased	decreased production and secretion	~30	~100
